# According to patent US5792622A, “Assay for chemicals” (priority 1995, dated 1998):
# pIC50: −log10 of the molar value. Like-named read-outs stand apart in the source and are kept apart here.
# Assays:
# [1] = test system: R. meliloti; conditions: cited from earlier work
# [2] = test system: R. meliloti; assay: microbe, parasite or virus in culture; assay type: cell-based; conditions: for sensitivity of Rhizobium/Tetrazolium assay compared with Microtox assay: ratio of the inhibitory concentrations
# [3] = Method: Solid phenol was dissolved in water and added to the reaction tubes.
# [4] = test system: R. meliloti NSI; assay: Inhibition of growth of R. meliloti NSI; assay type: cell-based; conditions: read-out: concentration inhibiting growth 50%
# Method: Typically, R. meliloti is grown in medium with 10-20 uM calcium. Magnesium sulfate, at 59.9 ppm, is 0.2435 mM. The medium MDM contains 0.6 mm Magnesium chloride; this is a concentration found in most defined media. […] CDM, the medium used in the experiments with the assay of the invention, is 0.81 mM with respect to magnesium.
# [5] = cited from earlier work
# [6] = test system: fish (trout fingerlings); conditions: Table 8, trout fingerlings; cited from earlier work
# [7] = test system: Rhodobacter sphaeroides; assay: Inhibition of tetrazolium dye reduction by Rhodobacter sphaeroides; assay type: cell-based
# Method: (§1) The other strains of bacteria, mixed in a buffer with various toxic chemicals, which were tested with the tetrazolium dye, gave varying results. Some bacteria reduced the dye, but the reduction was not inhibited appreciably by toxic chemicals. The absorbance of tetrazolium by Rhodobacter sphaeroides was not inhibited by copper. E. coli reduced the dye, but reduction was not inhibited by xylene. […] FIG. 1 is a graph showing data comparing the absorbance of the bacteria R. meliloti and E. coli at A590 varying between 0.0 and 0.3 in reacting with different toxins.
# [8] = test system: E. coli; assay: Inhibition of tetrazolium dye reduction by E. coli; assay type: cell-based
# Method: as §1
# [9] = test system: Ps fluorescens; assay type: cell-based; conditions: Table 1, incubation 1:57 hrs
# [10] = test system: S. lactis; assay type: cell-based; conditions: Table 1, incubation 9:57 hrs
# [11] = test system: R. meliloti; assay type: cell-based; conditions: Table 1, incubation 2:00 hrs
# [12] = test system: B. japonicum; assay type: cell-based; conditions: Table 1, incubation 7:48 hrs
# [13] = test system: R. leguminosarum; assay type: cell-based; conditions: Table 1, incubation 7:48 hrs
# [14] = test system: R. sphaeroides; assay type: cell-based; conditions: Table 1, incubation 11:25 hrs
# [15] = test system: B. megaterium; assay type: cell-based; conditions: Table 1, incubation 2:00 hrs
# [16] = test system: S. typhimurium; assay type: cell-based; conditions: Table 1, incubation 2:00 hrs
# [17] = test system: E. coli; assay type: cell-based; conditions: Table 1, incubation 1:40 hrs
# [18] = test system: A. crystallopoites; assay type: cell-based; conditions: Table 1, incubation 2:00 hrs
molecule,measurement,setting,value
"N#CC(C#N)=NNc1ccc(OC(F)(F)F)cc1 [FCCP, carbonyl-cyanide p(triflouromethoxy)phenylhydrozone]",inhibition of tetrazolium reduction compared with DNP,[1],at a much lower concentration than does DNP
same,IC50,[2],only a few μl
same,IC50,"[2]; Sinorhizobium meliloti, read-out: average (ppm), concentration giving 50% inhibition of dye reduction",0.114 µg/mL
ClC(Cl)(Cl)Cl [Carbon tetrachloride],miscibility in water,[3],very immiscible in water
same,IC50,"[2]; Sinorhizobium meliloti, Table 4, organic compounds, read-out: average (ppm), concentration giving 50% inhibition of dye reduction",3530 µg/mL
"[Cl-].[Cl-].[Mg+2] [MgCl2, Magnesium chloride]",pIC50,[4],1.57
[Cu] [Copper],Microtox IC50,[5]; Table 8,24.96 ppm
same,Fish LD50 (50% death of the fish),[6],0.1-10.7 ppm
same,inhibition of absorbance of tetrazolium,[7],not inhibited
same,effect on the reduction of the dye at very low concentrations,[2]; FIG. 10,stimulates the reduction of the dye at very low concentrations
same,ppm (50% inhibition of dye reduction),"[2]; Table 7, minerals",0.960 ppm
same,Rhizobium/Tetrazolium IC50,[2]; Table 8,0.240 ppm
same,sensitivity of Rhizobium/Tetrazolium assay compared with Microtox assay,[2],at least an order of magnitude more sensitive for 4 compounds
Xylene,Microtox ppm,[5]; Table 9,.70-9.25 ppm
same,inhibition of dye reduction,[8],not inhibited
same,ppm (50% inhibition of reduction),"[2]; Table 5, 10,000 ppm stock method",151 ppm
same,ppm (50% inhibition of reduction),"[2]; Table 5, QSAR method: aqueous phase assayed, hydrocarbon in water estimated by QSAR solubility model",30.3 ppm
same,ppm (50% inhibition of reduction),"[2]; Table 5, direct method",476 ppm
same,Rhizobium/Tetrazolium ppm,[2]; Table 9,146-452 ppm
same,sensitivity of Rhizobium/Tetrazolium assay compared with Microtox assay,[2],at least an order of magnitude more sensitive than the Rhizobium/Tetrazolium assay
"O=[N+]([O-])c1ccc(-[n+]2nc(-c3ccccc3)nn2-c2ccc(I)cc2)cc1 [INT, 2-(4-iodophenyl)-3-(4-nitrophenyl)-5-phenyltetrazolium chloride]",absorbance of reduced dye,[9],0.17
same,absorbance of reduced dye,[10],0.08
same,absorbance of reduced dye,[11],0.48
same,absorbance of reduced dye,[12],0.44
same,absorbance of reduced dye,[13],0.02
same,absorbance of reduced dye,[14],0.95
same,absorbance of reduced dye,[15],0.16
same,absorbance of reduced dye,[16],0.06
same,absorbance of reduced dye,[17],0.12
same,absorbance of reduced dye,[18],0.14
